{
  "source": "patent US10370436B2",
  "about": "“Anti-pseudomonas Psl binding molecules and uses thereof” (priority 2011, dated 2019)",
  "test_system": "P. aeruginosa PAO10 LPS",
  "assay": "Endotoxemia (LPS challenge) model",
  "assay_type": "in vivo, C57Bl/6 mice",
  "conditions": "0.2 mg/kg i.p. 2 h prior to challenge",
  "experimental": "In particular, C57Bl/6 mice (10 per group) were dosed i.p. with mAb or PMB-mAb conjugate 6 h prior to challenge with P. aeruginosa PAO10 LPS (Sigma) and D-galactosamine. PMB control was dosed i.p. 2 h prior to challenge at 0.2 mg/kg and typically provides 80-100% protection. Control mice dosed with unconjugated CAM-003 all died within 18 h.\nTM conjugates were dosed at 45, 15 and 5 mg/kg.",
  "data": [
    {"substance": "Polymyxin B [PMB, reference compound]", "values": [
      {"measurement": "protection", "result": "80-100%"}
    ]}
  ]
}
